Assay results from ChEMBL document CHEMBL1142021, “Aglycon specificity profiling of alpha-glucosidases using synthetic probes” (Bioorg Med Chem Lett, 2005).

How the values were obtained:
[1] = target: T1, Beta-galactosidase (Homo sapiens) (UniProt P16278); assay: Inhibition of beta-Galactosidase at 5 umol/mL
T1 sequence (whole entry): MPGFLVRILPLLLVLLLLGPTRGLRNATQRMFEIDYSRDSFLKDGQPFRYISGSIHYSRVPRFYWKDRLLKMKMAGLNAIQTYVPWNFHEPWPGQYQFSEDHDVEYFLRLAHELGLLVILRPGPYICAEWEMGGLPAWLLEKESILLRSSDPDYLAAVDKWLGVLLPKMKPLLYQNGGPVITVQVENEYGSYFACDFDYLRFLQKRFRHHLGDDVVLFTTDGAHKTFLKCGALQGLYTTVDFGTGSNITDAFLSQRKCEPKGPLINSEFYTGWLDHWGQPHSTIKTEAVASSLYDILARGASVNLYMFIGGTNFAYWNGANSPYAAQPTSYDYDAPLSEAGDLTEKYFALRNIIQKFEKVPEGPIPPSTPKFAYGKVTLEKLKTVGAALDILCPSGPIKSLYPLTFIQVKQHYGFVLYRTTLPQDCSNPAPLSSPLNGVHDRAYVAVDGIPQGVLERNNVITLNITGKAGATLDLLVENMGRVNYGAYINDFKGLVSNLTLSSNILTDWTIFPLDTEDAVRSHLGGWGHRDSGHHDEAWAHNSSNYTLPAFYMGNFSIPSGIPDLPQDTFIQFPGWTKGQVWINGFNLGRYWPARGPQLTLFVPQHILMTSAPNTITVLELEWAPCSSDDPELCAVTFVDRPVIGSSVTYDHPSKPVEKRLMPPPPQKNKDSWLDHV

[2] = target: T2, Alpha-glucosidase (Apis mellifera) (UniProt Q17058); assay: Inhibition of family 13 alpha-glucosidase isoform III from honey bee at 1 umol/mL
T2 sequence (whole entry): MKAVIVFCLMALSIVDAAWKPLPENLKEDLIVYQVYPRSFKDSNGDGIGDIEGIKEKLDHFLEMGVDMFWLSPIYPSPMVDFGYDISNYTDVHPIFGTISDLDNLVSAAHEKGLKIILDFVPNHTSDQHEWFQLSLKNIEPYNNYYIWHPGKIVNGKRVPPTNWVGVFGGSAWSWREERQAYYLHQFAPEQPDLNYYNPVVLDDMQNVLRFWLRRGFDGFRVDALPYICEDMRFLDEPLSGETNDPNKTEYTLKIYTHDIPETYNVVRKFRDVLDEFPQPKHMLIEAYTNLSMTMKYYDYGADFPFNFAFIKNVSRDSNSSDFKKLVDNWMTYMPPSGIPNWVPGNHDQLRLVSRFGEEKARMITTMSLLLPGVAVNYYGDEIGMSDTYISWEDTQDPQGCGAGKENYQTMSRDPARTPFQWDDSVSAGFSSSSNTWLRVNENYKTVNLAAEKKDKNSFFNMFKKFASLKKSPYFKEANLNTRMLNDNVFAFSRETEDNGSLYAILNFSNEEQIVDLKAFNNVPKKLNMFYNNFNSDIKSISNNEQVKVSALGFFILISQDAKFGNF

Saccharomyces cerevisiae = assay: Inhibition of Saccharomyces cerevisiae glucosidase (of family 13 alpha-glucosidase) by compound with concentration 1 umol/mI
[3] = target: T3, Alpha-glucosidase (Aspergillus niger) (UniProt P56526); assay: Inhibition of Aspergillus niger glucosidase (of family 31 alpha-glucosidase) at 1 umol/mL
T3 sequence (whole entry): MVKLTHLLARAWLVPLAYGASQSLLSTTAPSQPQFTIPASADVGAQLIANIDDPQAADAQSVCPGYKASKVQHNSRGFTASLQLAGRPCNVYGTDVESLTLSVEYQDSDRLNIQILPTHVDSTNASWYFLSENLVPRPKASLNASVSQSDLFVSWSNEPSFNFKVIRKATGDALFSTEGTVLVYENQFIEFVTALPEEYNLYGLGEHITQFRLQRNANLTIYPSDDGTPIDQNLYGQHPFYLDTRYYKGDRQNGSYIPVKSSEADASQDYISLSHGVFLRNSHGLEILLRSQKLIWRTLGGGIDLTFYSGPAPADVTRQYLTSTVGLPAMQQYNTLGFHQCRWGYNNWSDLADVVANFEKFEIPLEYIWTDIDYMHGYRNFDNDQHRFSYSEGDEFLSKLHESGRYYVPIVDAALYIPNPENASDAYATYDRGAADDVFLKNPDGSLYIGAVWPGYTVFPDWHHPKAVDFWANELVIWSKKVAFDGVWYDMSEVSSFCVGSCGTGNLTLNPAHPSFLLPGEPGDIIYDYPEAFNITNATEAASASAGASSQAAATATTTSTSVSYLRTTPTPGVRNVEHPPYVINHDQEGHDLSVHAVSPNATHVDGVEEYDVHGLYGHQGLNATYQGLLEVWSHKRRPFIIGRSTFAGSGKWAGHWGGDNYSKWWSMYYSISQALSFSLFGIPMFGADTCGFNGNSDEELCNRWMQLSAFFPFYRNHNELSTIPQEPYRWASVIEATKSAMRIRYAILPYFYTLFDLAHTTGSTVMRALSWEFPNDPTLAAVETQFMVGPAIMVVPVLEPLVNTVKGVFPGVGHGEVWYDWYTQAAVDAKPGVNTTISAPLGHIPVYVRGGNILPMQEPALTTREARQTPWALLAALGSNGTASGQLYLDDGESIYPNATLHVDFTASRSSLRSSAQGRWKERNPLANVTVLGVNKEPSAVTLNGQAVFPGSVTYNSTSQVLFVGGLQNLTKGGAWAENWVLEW

Row | Structure (SMILES) | inhibition [1] [%] | inhibition [2] [%] | inhibition (Saccharomyces cerevisiae) [%] | inhibition [3] [%]
1 | O=C(CO)NCC1OC(CO)C(O)C(O)C1O (configuration not stated) | < 1 | < 1 | < 1 | 6.6
2 | CC(=O)NCC1OC(CO)C(O)C(O)C1O (configuration not stated) | < 1 | < 1 | < 1 | 23.3
3 | CC(C)(C)C(=O)NCC1OC(CO)C(O)C(O)C1O (configuration not stated) | < 1 | < 1 | 6.1 | 1.2
4 | O=C(NCC1OC(CO)C(O)C(O)C1O)c1ccccc1 (configuration not stated) | < 1 | < 1 | 67.4 | 14
5 | O=C(CCO)NCC1OC(CO)C(O)C(O)C1O (configuration not stated) | < 1 | 3.2 | 21.1 | 2.6
6 | O=C(CCCO)NCC1OC(CO)C(O)C(O)C1O (configuration not stated) | < 1 | < 1 | < 1 | < 1
7 | O=C(CCCCCO)NCC1OC(CO)C(O)C(O)C1O (configuration not stated) | < 1 | < 1 | < 1 | < 1
8 | O=C(CCCCO)NCC1OC(CO)C(O)C(O)C1O (configuration not stated) | < 1 | < 1 | 100 | 6.8
